{"source": "paper PMC10980815", "about": "“Cell surface patching via CXCR4-targeted nanothreads for cancer metastasis inhibition” (Nature Communications, 2024)", "key": {"[1]": {"test": "Hydrodynamic size / size distribution by dynamic light scattering", "assay_type": "physicochemical", "conditions": "Malvern Zetasizer Nano ZS90, mean ± SD", "description": "(§1) The average molecular weight (Mw) and polydispersity (PDI) of the HPMA copolymer conjugates were determined by gel permeation chromatography (GPC) on an AKTA purifier equipment with a Superose 6 10/300 GL analytical column (GE Healthcare, USA) and a differential refraction detector (KNAUER, 2300, Germany). Hydrodynamic sizes and zeta potentials were determined using a Malvern Zetasizer Nano ZS90 equipment (Malvern Instruments Ltd, Malvern, UK). The contents of BS, CM1, and CM2 were determined using a bicinchoninic acid (BCA) protein assay. The PS concentration was determined by ultraviolet-visible (UV-Vis) spectroscopy at its characteristic absorbance peak (660 nm).\nTo investigate the coiled-coil assembly, varying CM1-to-CM2 ratios (3:1, 1:1, and 1:3) of P-BS-CM1 and P-CM2 were mixed in 10 mM PBS (pH 7.4) at 25 °C for 10 min. The total polymer concentration was kept constant at 10 mg/mL. Circular dichroism spectra, size distribution, and rheological properties of P-BS-CM1, P-CM2, and their mixture were measured. The surface morphology of P-BS-CM1 and the mixture (P-BS-CM1 + P-CM2) was observed using scanning electron microscopy. Additionally, for the FRET assay, CM1-to-CM2 equimolar of P-BS-CM1-Cy5 and P-CM2-Cy3 were mixed in 10 mM PBS (pH 7.4) at 25 °C for 10 min. Fluorescent spectra of P-BS-CM1-Cy5, P-CM2-Cy3, and the mixture (P-BS-CM1-Cy5+P-CM2-Cy3) were recorded at the Cy3 excitation wavelength of 550 nm."}, "ζ-potential (Zetasizer)": {"test": "ζ-potential (Zetasizer)", "assay_type": "physicochemical", "conditions": "Malvern Zetasizer Nano ZS90; mean ± SD", "description": "as §1"}, "4T1 cells [2]": {"tested_on": "4T1 cells", "test": "Photosensitizer cell binding (flow cytometry, confocal)", "assay_type": "cell-based, murine", "description": "For cell binding investigation, 4T1 cells (4 × 10^5 cells/well) were seeded onto 12-well plates (NEST Biotechnology), and treated with i) P-PS for 1 h, ii) P-BS-PS for 1 h, or iii) P-BS-CM1 for 1 h followed by P-PS-CM2 for another 1 h (50 μg/mL BS equivalence, CM1:CM2 1:1 mol%, 25 μg/mL PS equivalence), respectively. Subsequently, cells were washed three times with PBS and observed using flow cytometry and confocal microscopy."}, "4T1 cells [3]": {"tested_on": "4T1 cells", "test": "Calreticulin exposure in vitro (flow cytometry)", "assay_type": "cell-based, murine", "description": "(§2) For the investigation of CXCR4 downstream PI3K signals, cells were fixed, permeabilized, and stained with anti-PI 3 kinase p85 alpha recombinant rabbit monoclonal antibody (1:500 dilution, 4 °C, 1 h) and goat anti-rabbit IgG H&L Alexa Fluor® 647 (1:1000 dilution, 4 °C, 30 min), followed by flow cytometry analysis. For the investigation of ICD hallmarks, cells were stained with anti-calreticulin recombinant rabbit monoclonal antibody (1:500 dilution, 4 °C, 1 h) and goat anti-rabbit IgG H&L Alexa Fluor® 647 (1:1000 dilution, 4 °C, 40 min), followed by flow cytometry analysis. ATP levels in the cell culture supernatant were measured following the protocol of luciferase-based ATP assay kit."}, "4T1 cells [4]": {"tested_on": "4T1 cells", "test": "Extracellular ATP release in vitro", "assay_type": "cell-based, murine", "description": "as §2"}, "[5]": {"tested_on": "orthotopic 4T1 breast tumors", "test": "PDT efficacy in vivo: primary tumor growth, survival, lung metastasis", "parameters": "species or system female BALB/c mice", "description": "(§3) 4T1 cells (1 × 10^6 cells) were injected into the third mammary fat pad of female BALB/c mice (6–8-week). When tumor volumes reached nearly […] on day 7 after tumor inoculation, mice were randomly divided into 8 groups (n = 8 per group). For four groups without laser irradiation (−), mice were intravenously injected with the following samples: (1) saline on day 7, 14, 21, and 28, (2) P-PS on day 7, 14, 21, and 28, (3) P-BS-PS on day 7, 14, 21, and 28, or (4) P-BS-CM1 on day 7, 14, 21, and 28, followed by P-PS-CM2 on day 8, 15, 22, and 29 (5 mg/kg BS equivalence, CM1:CM2 1:1 mol%, 2.5 mg/kg PS equivalence), respectively. For four groups with laser irradiation (+), mice were treated with the same regimens and irradiated at 650 nm laser (580 mW/cm^2, 5 min) on day 9, 16, 23 and 30. Tumor volumes and mice survivals were recorded every other day. For the investigation of immune response and lung metastasis, 4T1 tumor-bearing female BALB/c mice (6–8-week, tumor volume~100 mm^3) were randomly divided into 8 groups (n = 5 per group) and given three rounds of above treatments. On day 28, lungs and tumors were harvested. lungs were fixed with Bouin’s solution. The pulmonary metastatic nodules were counted and analyzed by hematoxylin-eosin staining. Single-cell suspensions of tumor tissues were stained with anti-CD45-PerCP/Cy5.5 (1:300 dilution) and anti-calreticulin recombinant rabbit monoclonal antibody (1:500 dilution) at 4 °C for 1 h, and then stained with goat anti-rabbit IgG H&L Alexa Fluor® 647 (1:1000 dilution, 4 °C, 45 min), followed by flow cytometry analysis. ATP and HMGB1 concentrations in the supernatant of cell suspension were measured using a luciferase-based ATP assay kit and a mouse HMGB1 ELISA kit, respectively. Single-cell suspensions of tumors were stained with FITC anti-mouse CD3 antibody (1:300 dilution), PerCP/Cyanine5.5 anti-mouse CD4 antibody (1:300 dilution), anti-CD8α-APC (1:300 dilution), and anti-Foxp3-PE (1:300 dilution) for flow cytometry analysis of T cell subtypes (CD8^+ T cells, CD4^+ effector T cells, and Foxp3^+ regulatory T cells), and stained with PE anti-mouse/human CD11b antibody (1:300 dilution) and FITC anti-mouse Ly-6G/Ly-6C (Gr-1) antibody (1:300 dilution) for flow cytometry analysis of MDSCs (CD11b^+Gr1^+). Cytotoxic T cells in tumor tissues were investigated with immunofluorescent staining of IFN-γ and flow cytometry analysis using anti-IFN-γ-PE (1:300 dilution). For CD8-depletion assay, 4T1 tumor-bearing female BALB/c mice (6–8-week, tumor volume~100 mm^3) were randomly divided into 3 groups (n = 8 per group). Mice were intravenously given four doses of P-BS-CM1 on day 7, 14, 21 and 28, combined with P-PS-CM2 on day 8, 15, 22 and 29 (5 mg/kg BS equivalence, CM1:CM2 1:1 mol%, 2.5 mg/kg PS equivalence) in the presence or absence of InvivoMab anti-mouse CD8α (100 μg/mice). Mice were irradiated at 650 nm laser (580 mW/cm^2, 5 min) on day 9, 16, 23 and 30. Tumor volumes and mice survivals were recorded every other day."}, "[6]": {"tested_on": "orthotopic 4T1 breast tumors", "test": "Intratumoral ICD hallmarks (CRT, ATP, HMGB1)", "assay_type": "in vivo, female BALB/c mice", "conditions": "individual mice", "description": "as §3"}, "[7]": {"tested_on": "orthotopic 4T1 breast tumors", "test": "IFN-γ+CD8+ T lymphocytes in primary tumors", "assay_type": "in vivo, female BALB/c mice", "conditions": "groups marked (+) (laser irradiation); individual mice, n = 5", "description": "4T1 cells (1 × 10^6 cells) were injected into the third mammary fat pad of female BALB/c mice (6–8-week). When tumor volumes reached nearly […] on day 7 after tumor inoculation, mice were randomly divided into 8 groups (n = 8 per group). For four groups without laser irradiation (−), mice were intravenously injected with the following samples: (1) saline on day 7, 14, 21, and 28, (2) P-PS on day 7, 14, 21, and 28, (3) P-BS-PS on day 7, 14, 21, and 28, or (4) P-BS-CM1 on day 7, 14, 21, and 28, followed by P-PS-CM2 on day 8, 15, 22, and 29 (5 mg/kg BS equivalence, CM1:CM2 1:1 mol%, 2.5 mg/kg PS equivalence), respectively. For four groups with laser irradiation (+), mice were treated with the same regimens and irradiated at 650 nm laser (580 mW/cm^2, 5 min) on day 9, 16, 23 and 30. Tumor volumes and mice survivals were recorded every other day. For the investigation of immune response and lung metastasis, 4T1 tumor-bearing female BALB/c mice (6–8-week, tumor volume~100 mm^3) were randomly divided into 8 groups (n = 5 per group) and given three rounds of above treatments. […] The pulmonary metastatic nodules were counted and analyzed by hematoxylin-eosin staining. […] ATP and HMGB1 concentrations in the supernatant of cell suspension were measured using a luciferase-based ATP assay kit and a mouse HMGB1 ELISA kit, respectively. […] Tumor volumes and mice survivals were recorded every other day."}, "[8]": {"conditions": "groups marked (+) (laser irradiation), n = 5"}, "[9]": {"conditions": "groups marked (-) (no laser irradiation), n = 5"}}, "note": "“And” between values parts separate entries of the source, which are not always exact repeats. Equal values may be shown once. Ends that are not written are not given here.", "data": [{"substance": "P-BS-PS: BS-multivalently-modified polymer-PS conjugate (LGASWHRPDKCCLGYQKRPLPA; not fully specified (residues 11, 12); cysteine pairing not given here; also: chlorin e6 photosensitizer on polymer)", "values": [{"measurement": "Size", "setting": "[1]", "result": "22.4±1.4", "unit": "nm"}, {"measurement": "ζ-potential", "setting": "ζ-potential (Zetasizer)", "result": "-18.24±2.31", "unit": "mV"}, {"measurement": "Photosensitizer cell binding (fluorescence, Fig. 7a)", "setting": "4T1 cells [2]; replicate 1", "result": 507603}, {"measurement": "Photosensitizer cell binding (fluorescence, Fig. 7a)", "setting": "4T1 cells [2]; replicate 2", "result": 505554}, {"measurement": "Photosensitizer cell binding (fluorescence, Fig. 7a)", "setting": "4T1 cells [2]; replicate 3", "result": 480665}, {"measurement": "CRT positive cells (%)", "setting": "4T1 cells [3]; replicate 1", "result": 20.53, "unit": "%"}, {"measurement": "CRT positive cells (%)", "setting": "4T1 cells [3]; replicate 2", "result": 18.21, "unit": "%"}, {"measurement": "CRT positive cells (%)", "setting": "4T1 cells [3]; replicate 3", "result": 17.1, "unit": "%"}, {"measurement": "Extracellular ATP", "setting": "4T1 cells [4]; replicate 1", "result": 52.31, "unit": "nM"}, {"measurement": "Extracellular ATP", "setting": "4T1 cells [4]; replicate 2", "result": 40.65, "unit": "nM"}, {"measurement": "Extracellular ATP", "setting": "4T1 cells [4]; replicate 3", "result": 40.42, "unit": "nM"}, {"measurement": "Number of lung metastatic nodules", "setting": "[5]; (+) with laser, mouse 1 of 5", "result": 11}, {"measurement": "Number of lung metastatic nodules", "setting": "[5]; (+) with laser, mouse 2 of 5", "result": 13}, {"measurement": "Number of lung metastatic nodules", "setting": "[5]; (+) with laser, mouse 3 of 5", "result": 6}, {"measurement": "Number of lung metastatic nodules", "setting": "[5]; (+) with laser, mouse 4 of 5", "result": 9}, {"measurement": "Number of lung metastatic nodules", "setting": "[5]; (+) with laser, mouse 5 of 5", "result": 7}, {"measurement": "Number of lung metastatic nodules", "setting": "[5]; (-) no laser, mouse 1 of 5", "result": 24}, {"measurement": "Number of lung metastatic nodules", "setting": "[5]; (-) no laser, mouse 2 of 5", "result": 27}, {"measurement": "Number of lung metastatic nodules", "setting": "[5]; (-) no laser, mouse 3 of 5", "result": 22}, {"measurement": "Number of lung metastatic nodules", "setting": "[5]; (-) no laser, mouse 4 of 5", "result": 23}, {"measurement": "Number of lung metastatic nodules", "setting": "[5]; (-) no laser, mouse 5 of 5", "result": 21}, {"measurement": "ATP per tumor weight", "setting": "[6]; [8]", "result": "345.1 µmol/g and 303.2 µmol/g and 231.5 µmol/g and 287.7 µmol/g and 298.1 µmol/g"}, {"measurement": "CRT expression in tumor (MFI)", "setting": "[6]; [8]", "result": "34335.1 MFI and 38552.2 MFI and 29253.6 MFI and 35944.5 MFI and 36607.6 MFI"}, {"measurement": "HMGB1 per tumor weight", "setting": "[6]; [8]", "result": "80.13 ng/g and 70.54 ng/g and 88.61 ng/g and 92.56 ng/g and 89.1 ng/g"}, {"measurement": "ATP per tumor weight", "setting": "[6]; [9]", "result": "191.5 µmol/g and 151.37 µmol/g and 120.13 µmol/g and 106.4 µmol/g and 205.73 µmol/g"}, {"measurement": "HMGB1 per tumor weight", "setting": "[6]; [9]", "result": "19.76 ng/g and 15.34 ng/g and 14.57 ng/g and 18.95 ng/g and 19.22 ng/g"}, {"measurement": "CRT expression in tumor (MFI)", "setting": "[6]; groups marked (-) (no laser irradiation), n = 5, one line each", "result": "27343 MFI and 22321 MFI and 19321 MFI and 23431 MFI and 20197 MFI"}, {"measurement": "IFN-γ+ cells (%) in tumor-infiltrating CD8+ cells", "setting": "[7]", "result": "13.27% and 14.75% and 15.74% and 11.82% and 15.65%"}]}]}
